Assay results: US20080187492A1, “Drosophila Models For Diseases Affecting Learning and Memory” (priority 2004, published 2008)

Columns and labels:
[1] = system: FS (dFMR1-3+frame shifted rescue fragment) flies; assay: Conditioned courtship: short-term memory at 60 minutes, virgin female target, FS flies; format: in vivo, Drosophila melanogaster; details: for short-term memory: concentration not given; for short term memory: LY341495 (400 nM), MPEP (20 μg/ml); for short-term memory at 60 minutes after training: adulthood alone or both
Protocol: (§1) Short-term memory. The model was further extended to encompass short-term memory at 60 minutes after training. After the one hour training session with a previously mated female, the female is removed and the male is placed in a holding chamber for 60 minutes, then subsequently placed in a testing chamber with a virgin female target to assess short-term memory (FIG. 4C). […] CT-CT FS flies court just as vigorously at 60 minutes after training as naive CT-CT FS flies. […] The FS groups that were treated with MPEP in development alone, adulthood alone or in both development and adulthood display experience dependent reduction of courtship activity at 60 minutes after training when compared to group matched naives M-M FS, p<0.0001, CT-M FS, p<0.0001 and M-CT FS, p<0.0001. […] Additionally, flies were tested for ability to discriminate between virgin and previously mated females (FIG. 4D).
(§2) In order to examine short-term memory at 60 minutes after training, after the one hour training session with a previously mated female, the female is removed and the male is placed in a holding chamber for 60 minutes, then subsequently placed in a testing chamber with a virgin female (FIG. 9B). […] CT-CT FS flies court just as vigorously at 60 minutes after training as naive CT-CT FS flies. […] The FS groups that were treated with MPEP in development alone, adulthood alone or in both development and adulthood display experience dependent reduction of courtship activity at 60 minutes after training when compared to group matched naives M-M FS.

[2] = system: Rescue (dFMR1-3+wild type rescue fragment) flies; assay: Conditioned courtship: short-term memory at 60 minutes, virgin female target, Rescue flies; format: in vivo, Drosophila melanogaster; details: for short term memory: MPEP (20 μg/ml), NaCl (5 and 50 mM), LY341495 (400 nM); for short-term memory at 60 minutes after training: adulthood or both
Protocol: as §1, §2

Rescue flies = assay: Short-term memory (60 mins) with mated female targets, Rescue flies; format: in vivo, Drosophila melanogaster; details: for short-term memory, mated female target: 86 μM MPEP, 400 nM LY341495, 573 μM MPPG, 348 μM MTPG; for memory at 60 minutes post training, mated female target: 5 day old, 8.6 mM MPEP, 400 nM LY341495
Protocol: Effects of drug treatment on short-term memory (60 mins) in flies lacking dfmr1 activity with mated female targets. Short-term (60 min.) memory was measured in Rescue and FS flies that were either fed control food or underwent various drug treatments as described below. Short-term memory was measured by placing a trained male in a holding chamber for 60 minutes (after being trained for one hour with a previously mated female), then subsequently placing him in a testing chamber with a mated female target for a ten-minute courtship interval (C.I.). This C.I. was compared to the C.I. obtained for naïve courtship of a previously mated female, i.e., C.I. during the first 10 minutes of the training session with a previously mated female. Additionally, for reference the C.I. during the last 10 minutes of the training period was also determined. Numbers of flies are indicated above each bar for all groups. The levels of significance are indicated as follows; *=p<0.05; **=p<0.005; ***=p<0.0001.
Restoration of short-term memory with mGluR antagonists. To establish that the failure to observe memory was not due to a problem with recognizing or processing the appropriate cues from the virgin female target, we used a modified version of the conditioned courtship paradigm where the male is paired with a mated female target subsequent to training (Kane et al., 1997; Joiner and Griffith, 1997; Joiner and Griffith, 1999; Kamashev et al., 1999). Again, with pharmacologic treatment it is necessary to utilize more then one compound to confirm the specificity of the target, so in this case we used four mGluR antagonists. […] It is also important to note that the robust deficit in synaptic plasticity in FS flies, with regard to memory, is a critical extension of the previous models of Fragile X syndrome in model organisms, since this is one of the most prominent aspects of the human disorder. Furthermore, we have shown that antagonism of the mGluRs can restore synaptic plasticity in the Drosophila model of Fragile X syndrome.

FS mutant flies = assay: Fusion of mushroom body β-lobes (anti-FasII staining), FS mutant flies; format: in vivo, Drosophila melanogaster
Protocol: Histological analysis was performed on relevant experimental flies, showing the fusion of MB beta lobes and the rescue of these fusions with in mGluR antagonists (FIG. 18). Brains from (0-1 day old) dfmr1 mutant adult flies were stained with anti-fasciclin II (ID4) and a rhodamine-coupled secondary antibody. The α, β, & γ lobes of the MBs are clearly labeled with this antibody and appear normal in this mutant brain (Panel A). Panels B-E show a higher magnification of the β-lobes at the midline. […] Panels C-E show mutants brains displaying a C) “mild” (arrowhead), D) “moderate” and E) “severe” level of midline crossing by the […]. […] WT rescue flies are dfmr1 mutants containing one copy of the dfmr1 genomic rescue fragment. The number of brains examined are listed below each group.
Rescue of β-lobe fusions with mGluR antagonists. Previously it has been established that the mushroom bodies are involved in learning and memory in the conditioned courtship and the odor shock classical conditioning paradigms in Drosophila (deBelle and Heisenberg, 1994; Joiner and Griffith, 1999; McBride et al, 1999; Zars et al, 2000; Paschel and Preat, 2001). […] When labeled with anti-FasII, we observed a range of β-lobe fusion defects in brains derived from 0-2 day old FS mutant flies, but not Rescue flies (FIG. 18).
Since treatment of FS mutant flies with mGluR antagonists rescued the memory defects observed in these flies, we examined the effect of these treatments on the β-lobe fusion defect to determine if the rescue of the two phenotypes was correlated. We raised FS mutant flies in food containing 8.6 mM MPEP, 400 nM LY341495 or 350 mM MTPG, then examined the morphology of the MBs in 0-2 day old adults. […] For example, mild fusion defects were only observed in 18% of FS mutant brains raised in food containing 400 nM LY341495 (FIG. 18F). No effect was observed when these drugs were fed to Rescue flies during development (not shown).
If this is true, then we would expect that the behavioral rescue obtained by treating FS mutant flies these drugs during adulthood alone would lead to a similar morphological rescue. To test this hypothesis, we treated FS mutant flies with 8.6 mM MPEP for four days starting at eclosion, and then transferred them to normal food for 24 hours before examining the morphology of their MBs. For comparison we also examined the MBs of flies left in control food for five days. […] Thus it appears that rescue of this morphological defect is not absolutely necessary for the rescue of the memory defects observed in the dfmr1 mutant flies.

[3] = system: wild type human and Drosophila tau expressing flies; assay: Short term memory in tau over expressing Drosophila Alzheimer's model; format: in vivo; details: for age dependent short term memory deficit: at 30 and 40 days
Excerpt: Two Drosophila Alzheimer's models are particularly useful. One uses over expression of tau (either human wild type or Drosophila wild type with a myc tag) driven in the mushroom bodies. Flies overexpressing tau have normal memory at 5 days of age (young adults) but an age dependent impairment of short-term and long term memory by 26 days of age.

[4] = raised in food containing 8.6 mM MPEP, 400 nM LY341495 or 350 mM MTPG, 0-2 day old adults

SMILES | short-term memory ([1]; 20-day-old) | short term memory ([1]; 5 day old) | short term memory ([2]; 5 day old) | short-term memory, mated female target (Rescue flies) | memory at 60 minutes post training, mated female target (Rescue flies) | FS mutant brains with (mild) fusion defects (FS mutant flies; raised in food containing 400 nM LY341495, untreated roughly 70%) [%] | β-lobe fusion defects (FS mutant flies; [4]) | age dependent short term memory deficit [3] | short term memory ([3]; treatment from day 30 to day 39, at 40 days of age) | short-term memory at 60 minutes after training ([1]; 20-day-old, MPEP in development alone) | short-term memory at 60 minutes after training ([1]; 5 day old, MPEP 200 μg/ml in development alone, p<0.0001) | short-term memory at 60 minutes after training ([2]; 20-day-old, MPEP in development) | short-term memory at 60 minutes after training ([2]; 5 day old, MPEP 200 μg/ml in development) | β-lobe fusion defects (FS mutant flies; 8.6 mM MPEP for four days starting at eclosion (adulthood only))
N[C@](CC1c2ccccc2Oc2ccccc21)(C(=O)O)[C@H]1C[C@@H]1C(=O)O [LY341495, (2S)-2-amino-2-[(1S,2S)-2-carboxycycloprop-1-yl]-3-(xanth-9-yl) propionic acid] | rescue short-term memory | restored short-term memory | did not affect short term memory | demonstrated intact short-term memory | demonstrate memory at 60 minutes post training | 18 | rescue of the β-lobe fusion defects | can rescue the age dependent short term memory deficit | can restore short term memory |  |  |  |  | 
CC(N)(C(=O)O)c1ccc(-c2nnn[nH]2)cc1 (racemic) [MTPG, (RS)-α-methyl-4-tetrazolylphenylglycine] | rescue short-term memory |  |  | demonstrated intact short-term memory | demonstrate memory at 60 minutes post training |  | rescue of the β-lobe fusion defects |  |  |  |  |  |  | 
Cc1cccc(C#Cc2ccccc2)n1 [MPEP, 2-methyl-6-(phenylethynyl)pyridine] |  | restored short-term memory | did not affect short term memory | demonstrated intact short-term memory | demonstrate memory at 60 minutes post training |  | rescue of the β-lobe fusion defects | can rescue the age dependent short term memory deficit |  | short-term memory is also rescued | short-term memory is also rescued | does not adversely affect short-term memory | does not adversely affect short-term memory | did not observe any rescue of the β-lobe fusion defects
